# Like-named read-outs stand apart in the source and are kept apart here.
# What was measured:
# [1] = Crl:CD-1(ICR) BR, mouse, in vivo
# [2] = 26-week rat toxicity and toxicokinetic study; type: in vivo; details: for AUC(0-t): Crl:CD(SD)IGS BR, rat, plasma, po, 8 mg/kg/day, EB-1010 8 mg/kg/day, read-out: AUC0-24 of metabolite
# Protocol: A portion of the animals from each group was maintained for an additional 4-week post-treatment recovery period.
# For toxicology assessment, groups comprised thirty animals of each gender. Assessments included clinical observations, body weight, and food consumption measures noted periodically during the study. […] Ophthalmic examinations were performed during Weeks 1 and 13. […] In addition, the liver, vagina, and ovaries were identified as potential target tissues and were examined microscopically for all animals from all groups at the primary and recovery necropsies. […] 10 animals of each gender from each group were held to week 30 for a 4-week post-treatment recovery period.
# For the toxicokinetic studies, there were ten animals of each gender in each group.
# [3] = 13-week mouse toxicity and toxicokinetic study; details: Crl:CD-1(ICR) BR, in vivo, 0 day
# Protocol: For toxicology assessment ten mice of each gender were placed in each group.
# Ophthalmic examinations were performed during Weeks −1 and 12.
# [4] = 12-month dog toxicity and toxicokinetic study; type: in vivo; details: dog, in vivo
# Protocol: Blood samples were collected on Days 0, 91, 181, 268 and 358 from up to 4 animals/gender/group. Plasma samples collected on Days 91, 181, 268, as well as all plasma samples collected from the control group were not evaluated.
# For toxicology assessment four dogs of each gender were included in each group. Assessments included clinical observations, body weight, and food consumption measures which were recorded periodically during the study. Ophthalmic examinations were performed during Weeks 1, 12, 25, 38, 51, and 55 (recovery period). Electrocardiograms were recorded during Weeks 2, 12, 25, 38, and 51. Clinical pathology evaluations (hematology, serum chemistry, and urinalysis) were performed during Weeks 1, 12, 25, 38, 52, and 56 (recovery period). At termination, complete necropsies were performed on all dogs and selected organs were weighed. Selected tissues from the control and 20 (15) mg/kg/day group animals and animals euthanized in extremis were examined microscopically. Sections of livers from dogs in the control and 20 (15) mg/kg/day groups were collected at both the primary and 4-week post-treatment recovery necropsies for assessment of drug metabolism enzyme (microsomal cytochrome P450) activity.
smiles,measurement,setting,value
"O=C1NCC2(c3ccc(Cl)c(Cl)c3)CC12 (centres unmarked) [EB-10101, 5-(3,4-dichloro-phenyl)-3-aza-bicyclo[3.1.0]hexan-2-one]",AUC0-24 of metabolite relative to parent drug,[1],2-5 fold
same,AUC0-24 of metabolite relative to parent drug,[1]; 150 mg/kg/day,≤ 10 fold
same,AUC0-24 of metabolite relative to parent drug,[2]; Day 0,approximately 7 fold
same,AUC0-24 of metabolite relative to parent drug,[2]; Day 177,≤ 14 fold
same,AUC(0-t),"[2]; female, females, Day 177",88100 ng·h/mL
same,AUC(0-t),"[2]; male, males, Day 177",80400 ng·h/mL
same,exposure to metabolite relative to parent drug,[3],2-5 fold
same,"AUC0-24 of metabolite relative to parent drug, any individual animal",[4],≤ 3.5 fold

# Source: US20160346249A1 (priority 2012, published 2016)
